Like-named read-outs stand apart in the source and are kept apart here. Starred links: 1 amine or outer side, 2 acyl side, 3 side chain; linkers in the order of their positions; H or OH if unused. Positions of bridges follow the written chain, without caps; N, C: chain ends. Non-standard residues stand in square brackets, D forms with d. Residues, ends and D or L forms follow the SMILES beside them. Phe(3-OCH2COOH) = N[C@@H](Cc1cccc(OCC(=O)O)c1)C(=O)O; Phe(4-COOH) = N[C@@H](Cc1ccc(C(=O)O)cc1)C(=O)O; Gly(N(CH2)3COOH) = O=C(O)CCCNCC(=O)O; X1 = CCCCCCC[C@H](N[*:1])C(=O)[*:2]; NMeF = CN[C@@H](Cc1ccccc1)C(=O)O; hCys = N[C@@H](CCS)C(=O)O; NMeA = CN[C@@H](C)C(=O)O; Sar = CNCC(=O)O
Legend:
Myostatin = biological target: T1, Myostatin (Homo sapiens, UniProt O14793); assay: HepG2 reporter gene assay, Evaluation Procedure (2): 2-concentrations assay, myostatin inhibition; type: cell-based; conditions: HepG2
T1 construct: active myostatin (also called mature myostatin) is a homodimer consisting of two C-terminal growth factor domains; purchased R&D systems 788-G8/CF
T1 sequence (O14793 267-375): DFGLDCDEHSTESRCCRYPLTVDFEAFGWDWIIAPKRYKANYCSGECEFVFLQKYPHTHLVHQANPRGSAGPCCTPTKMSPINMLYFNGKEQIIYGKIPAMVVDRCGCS
Method in brief: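 Myostatin inhibition was measured in a luciferase reporter assay using HepG2 cells transfected with a pGL3 vector containing 12 CAGA repeats upstream of luciferase. After 20 to 24 hours with 10 ng/mL myostatin, cells received One-Glo:PBS (1:1) at 100 µL/well, were shaken for 5 min, and 20 µL/well was moved to 384-well plates and read on an Envision 2104.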

GDF-11 = biological target: T2, GDF-11 (Homo sapiens, UniProt O95390); assay: HepG2 reporter gene assay, Evaluation Procedure (2): 2-concentrations assay, GDF-11 inhibition; type: cell-based; conditions: for inhibition: read-out: inhibition rate (GDF-11 inhibition assay)
T2 construct: purchased R&D systems 1958-GD-G8/CF
T2 sequence (O95390 299-407): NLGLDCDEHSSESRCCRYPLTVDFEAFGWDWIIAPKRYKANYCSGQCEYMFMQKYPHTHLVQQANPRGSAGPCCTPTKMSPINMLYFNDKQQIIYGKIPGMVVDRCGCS
Method in brief: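 HepG2 cells carrying the transfected pGL3(CAGA)12-luc reporter, a pGL3 vector with luciferase placed downstream of 12 CAGA repeats, were stimulated with GDF-11 at a final 10 ng/mL together with test peptide. Blank wells received no GDF-11 and no peptide. Plates were incubated 20 to 24 hours at 37°C with 5% CO2. Luminescence from One-Glo substrate was read to calculate percent inhibition.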

[1] = Table 7-3/7-4, myostatin 10 ng/mL, peptide at the higher of the 2 concentrations, read-out: inhibition rate (myostatin inhibition assay)
[2] = Table 7-3/7-4, myostatin 10 ng/mL, peptide at the lower of the 2 concentrations, read-out: inhibition rate (myostatin inhibition assay)
[3] = HepG2, first GDF-11 column of Table 7-3/7-4, GDF-11 10 ng/mL, peptide at the lower of the 2 concentrations
[4] = HepG2, second GDF-11 column of Table 7-3/7-4, GDF-11 10 ng/mL, peptide at the higher of the 2 concentrations

inhibition at 0.1 µM (Myostatin; [1])	inhibition at 0.03 µM (Myostatin; [2])	inhibition (GDF-11; [3])	inhibition (GDF-11; [4])	inhibition at 0.03 µM (Myostatin; peptide 30nM, Myostatin 10 ng/mL, read-out: Myostatin Inhibition 30nM)	inhibition at 0.1 µM (Myostatin; peptide 100nM, Myostatin 10 ng/mL, read-out: Myostatin Inhibition 100nM)	inhibition at 0.03 µM (GDF-11; HepG2, peptide 30nM, GDF-11 10 ng/mL, read-out: GDF11 Inhibition 30nM)	inhibition at 0.1 µM (GDF-11; HepG2, peptide 100nM, GDF-11 10 ng/mL, read-out: GDF11 Inhibition 100nM)	Structure (SMILES)
100%	100%	0%	0%	–	–	–	–	CCCCCCC[C@@H]1NC(=O)[C@H](Cc2ccccc2)N(C)C(=O)[C@H](CCCNC(=N)N)NC(=O)[C@H](Cc2ccc(C(=O)O)cc2)NC(=O)[C@H](Cc2cccc(OCC(=O)O)c2)NC(=O)[C@H](C)N(C)C(=O)[C@H]([C@@H](C)CC)NC(=O)[C@H](Cc2ccccc2)N(C)C(=O)[C@H](Cc2ccc(O)cc2)NC(=O)[C@H](Cc2c[nH]c3ccccc23)NC(=O)[C@H](C)NC(=O)CN(CCCC(=O)O)C(=O)CSCC[C@@H](C(=O)O)NC(=O)[C@H](Cc2ccccc2)N(C)C(=O)[C@H](C)N(C)C1=O [Myostatin_99_v442] ({CH2CO}-[Gly(N(CH2)3COOH)]AWY[NMeF]I[NMeA][Phe(3-OCH2COOH)][Phe(4-COOH)]R[NMeF][X1][NMeA][NMeF][hCys]-OH; thioether N-15)
100%	100%	0%	0%	–	–	–	–	CCCCCCC[C@@H]1NC(=O)[C@H](Cc2ccccc2)N(C)C(=O)[C@H](CCCNC(=N)N)NC(=O)[C@H](Cc2ccc(C(=O)O)cc2)NC(=O)[C@H](Cc2cccc(OCC(=O)O)c2)NC(=O)[C@H](C)N(C)C(=O)[C@H]([C@@H](C)CC)NC(=O)[C@H](Cc2ccccc2)N(C)C(=O)[C@H](Cc2ccc(O)cc2)NC(=O)[C@H](Cc2c[nH]c3ccccc23)NC(=O)[C@H](C)NC(=O)CN(CCCC(=O)O)C(=O)[C@H](C)N(C)C(=O)[C@@H](C)NC(=O)[C@H](Cc2ccccc2)N(C)C(=O)[C@H](C)N(C)C1=O [Myostatin_99_v450] (cyclo(AWY[NMeF]I[NMeA][Phe(3-OCH2COOH)][Phe(4-COOH)]R[NMeF][X1][NMeA][NMeF][dA][NMeA][Gly(N(CH2)3COOH)]))
100%	99%	1%	0%	–	–	–	–	CCCCCCC[C@@H]1NC(=O)[C@H](Cc2ccccc2)N(C)C(=O)[C@H](CCCNC(=N)N)NC(=O)[C@H](Cc2ccc(C(=O)O)cc2)NC(=O)[C@H](Cc2cccc(OCC(=O)O)c2)NC(=O)[C@H](C)N(C)C(=O)[C@H]([C@@H](C)CC)NC(=O)[C@H](Cc2ccccc2)N(C)C(=O)[C@H](Cc2ccc(O)cc2)NC(=O)[C@H](Cc2c[nH]c3ccccc23)NC(=O)[C@H](C)NC(=O)[C@H](C)N(C)C(=O)[C@H](C)N(C)C(=O)CNC(=O)[C@H](Cc2ccccc2)N(C)C(=O)[C@H](C)N(C)C1=O [Myostatin_99_v455] (cyclo(AWY[NMeF]I[NMeA][Phe(3-OCH2COOH)][Phe(4-COOH)]R[NMeF][X1][NMeA][NMeF]G[NMeA][NMeA]))
–	–	–	–	56%	87%	0%	19%	CC[C@H](C)[C@@H]1NC(=O)[C@H](Cc2ccccc2)N(C)C(=O)[C@H](Cc2ccc(O)cc2)NC(=O)[C@H](Cc2c[nH]c3ccccc23)NC(=O)[C@H](CCCNC(=N)N)NC(=O)[C@H](C)NC(=O)CSC[C@@H](C(N)=O)NC(=O)[C@H](Cc2ccccc2)N(C)C(=O)[C@H](C)N(C)C(=O)[C@H](CC(C)C)NC(=O)[C@H](Cc2ccccc2)N(C)C(=O)[C@H](CCCNC(=N)N)NC(=O)[C@H](Cc2ccc(O)cc2)NC(=O)[C@H](Cc2ccc(O)cc2)NC(=O)CN(C)C1=O [Myostatin_Myostatin_000099] ({CH2CO}-ARWY[NMeF]I[Sar]YYR[NMeF]L[NMeA][NMeF]C-NH2; thioether N-15)

Reference: patent EP4786487A1, “PEPTIDE” (Peptidream Inc, priority 2023, dated 2025)
